The numbers were not newly measured in patent publication US20240342302A1, “DEGRADER-ANTIBODY CONJUGATES AND METHODS OF USING SAME” (Angiex, Inc., priority 2021, published 2024), which cites them from elsewhere.

The conditions of series [1]: patients treated with CA4P.

As to `CN(C)CC#Cc1ccc(OCCCc2sc(N3CCc4cccc(C(=O)Nc5nc6ccccc6s5)c4C3)nc2C(=O)O)c(F)c1` [A115463], the “toxicity in the clinic” value is “on-target and dose-limiting thrombocytopenia”.

In the case of `CC1(C)CCC(c2ccc(Cl)cc2)=C(CN2CCN(c3ccc(C(=O)NS(=O)(=O)c4ccc(N[C@H](CCN5CCOCC5)CSc5ccccc5)c(S(=O)(=O)C(F)(F)F)c4)cc3)CC2)C1` [ABT 263], the “toxicity in the clinic” value is “on-target and dose-limiting thrombocytopenia”.

As to `COc1ccc(/C=C\c2cc(OC)c(OC)c(OC)c2)cc1OP(=O)(O)O` [CA4P], the cardiovascular adverse events result in series [1] is listed as “seven patients have experienced heart attacks”.
